One compound from PubChem BioAssay AID1745844 (Carcinogenic Potency Database (CPDB), 2022) can be followed below.

Several values for one entry are separate records, joined by “and”; a condition that tells them apart may be missing. Equal entries are not always repeated.

The test system of the data set is rodent lifetime carcinogenesis bioassay, tumor incidence TD50. Description: chronic cancer bioassays in animals – CPDB, compiled studies (AID 1745844). The note with it: hamster, strain Syrian Golden, by gavage.

The TD50 is the dose at which the toxic effect under study appears in half of the subjects.

Regarding `CC1CN(N=O)CC(C)O1` (stereo not given), the TD50 (females, site: any site (literature study), lesion: several types, types named in the paper, dosed 59 weeks, study length 83 weeks) worked out at 1.55 mg/kg/day; the TD50 (females, site: forestomach, lesion: several types, types named in the paper, dosed 59 weeks, study length 83 weeks) amounted to 9.45 mg/kg/day; the TD50 (females, site: gall bladder, lesion: several types, types named in the paper, dosed 59 weeks, study length 83 weeks) stood at 12.9 mg/kg/day; the TD50 (females, site: liver, lesion: several types, types named in the paper, dosed 59 weeks, study length 83 weeks) turned out to be 11 mg/kg/day; the TD50 (females, site: lung, lesion: several types, types named in the paper, dosed 59 weeks, study length 83 weeks) was 34.6 mg/kg/day; the TD50 (females, site: pancreas, lesion: several types, types named in the paper, dosed 59 weeks, study length 83 weeks) is 5.75 mg/kg/day. Besides, the TD50 runs as follows: (females, site: pancreatic duct, lesion: adenoma, dosed 59 weeks, study length 83 weeks) 6.99 mg/kg/day; (females, site: pancreatic duct, lesion: carcinoma, dosed 59 weeks, study length 83 weeks) 32.1 mg/kg/day; (females, site: several sites, sites named in the paper, lesion: several types, types named in the paper, dosed 59 weeks, study length 83 weeks) 9.17 mg/kg/day and 16.9 mg/kg/day; (females, site: trachea, lesion: papillary polyp, dosed 59 weeks, study length 83 weeks) 6.4 mg/kg/day; (males, site: any site (literature study), lesion: several types, types named in the paper, dosed 66 weeks, study length 87 weeks) 1.68 mg/kg/day; (males, site: forestomach, lesion: several types, types named in the paper, dosed 66 weeks, study length 87 weeks) 2.91 mg/kg/day. Besides, the TD50 is, setting by setting: (males, site: larynx, lesion: squamous-cell papilloma, dosed 66 weeks, study length 87 weeks) 27.3 mg/kg/day; (males, site: liver, lesion: several types, types named in the paper, dosed 66 weeks, study length 87 weeks) 10.1 mg/kg/day; (males, site: lung, lesion: several types, types named in the paper, dosed 66 weeks, study length 87 weeks) 1.21 mg/kg/day; (males, site: pancreas, lesion: several types, types named in the paper, dosed 66 weeks, study length 87 weeks) 2.78 mg/kg/day; (males, site: pancreatic duct, lesion: adenoma, dosed 66 weeks, study length 87 weeks) 21.2 mg/kg/day; (males, site: pancreatic duct, lesion: carcinoma, dosed 66 weeks, study length 87 weeks) 6.67 mg/kg/day. For the same compound, the TD50 (males, site: trachea, lesion: papillary polyp, dosed 66 weeks, study length 87 weeks) was 10.5 mg/kg/day. Moreover, where the note is “females, site: larynx, lesion: squamous-cell papilloma, dosed 59 weeks, study length 83 weeks”, the carcinogen call is “positive”.
